Data published in EP3431468B1, “USE OF ADIPONECTIN RECEPTOR AGONISTS IN TREATING DEPRESSION, ANXIETY AND NEUROINFLAMMATION” (CENTRE NATIONAL DE LA RECHERCHE SCIENTIFIQUE, priority 2017, dated 2019).

Key:
AdipoR2 = biological target: T1, AdipoR2 (Homo sapiens, UniProt Q86V24); settings: Okada-Iwabu, Yamauchi et al. 2013; cited from earlier work
T1 sequence (Q86V24 1-386): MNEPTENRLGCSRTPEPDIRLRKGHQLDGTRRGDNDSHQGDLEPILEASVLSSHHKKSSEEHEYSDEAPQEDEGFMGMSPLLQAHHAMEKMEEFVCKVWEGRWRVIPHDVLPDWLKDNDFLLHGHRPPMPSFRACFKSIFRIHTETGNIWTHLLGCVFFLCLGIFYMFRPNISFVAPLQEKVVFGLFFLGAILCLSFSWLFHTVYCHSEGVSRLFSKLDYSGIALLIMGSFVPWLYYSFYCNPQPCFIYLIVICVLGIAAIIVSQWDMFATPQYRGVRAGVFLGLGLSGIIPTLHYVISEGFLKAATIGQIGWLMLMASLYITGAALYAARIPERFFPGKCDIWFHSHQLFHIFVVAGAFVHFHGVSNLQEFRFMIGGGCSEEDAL

[1] = system: corticosterone-treated mice; assay: Novelty Suppressed Feeding (NSF), chronic administration; type: in vivo; settings: chronic 1mg/kg ip daily
Method: Three well-established mouse models of depression-like behavior have been used in the present study namely i- the long-term corticosterone treatment in the drinking water (David, Samuels et al. 2009), ii- the peripheral administration of LPS (O'Connor, Lawson et al. 2009) iii- the ApN^-/- mice (Liu, Guo et al. 2012). For chronic AdipoRon treatment, the experimental protocol was as followed: • i- Five weeks old male mice (five/cage) received corticosterone (35mg/L dissolved in tap water containing 4 g/L CD) or vehicle alone ad libitum for during 7 consecutive weeks (David, Samuels et al. 2009). Corticosterone and vehicle solutions were changed every 3 days to prevent possible degradation. […]
All behavioral testing were conducted during the light phase (between 09:00 and 14:00 am) in compliance with the Institutional Animal Care and Use Committee of the University of Nice-Sophia Antipolis (permission number 010344.01 from the French "Ministère de l'Enseignement Supérieur et de la Recherche" granted to Dr. Joëlle Chabry). • Forced Swimming test (FST) - Mice were placed an inescapable transparent tank (20cm diameter, 30cm deep) filled with water (23°C ± 0.5) for six minutes as previously described by Porsolt et al. (1977). […] To initiate testing, mice were placed into the light side and activity was recorded for 5 minutes. […]

serotonin pathway = assay: 5-HT and 5-HIAA levels in dorsal raphe nucleus; type: in vivo; settings: corticosterone-exposed mice, chronic AdipoRon
AMPK = AMPK phosphorylation in hypothalamus by western blot; type: in vivo, mice; settings: 1mg/kg
[2] = system: presumed serotoninergic neurons; assay: Whole-cell patch-clamp recordings on brain slices, voltage clamp; type: cell-based, mouse
[3] = system: neurons of dorso-median raphe nucleus; assay: Whole-cell patch-clamp recordings on brain slices, current clamp; type: cell-based, mouse

O=C(COc1ccc(C(=O)c2ccccc2)cc1)NC1CCN(Cc2ccccc2)CC1 [AdipoRon, 2-(4-Benzoylphenoxy)-N-[1-(phenylmethyl)-4-piperidinyl]-acetamide]
binding to adiponectin receptor (AdipoR2): bind | latency to eat in the NSF ([1]; corticosterone-treated mice): reversed the effect of corticosterone | latency to eat in the NSF ([1]; vehicle-treated mice (no corticosterone)): no significant effect | 5-HT level (serotonin pathway): without modifying the 5-HT level | level of 5-HIAA (serotonin pathway): increased the level of 5-HIAA | ratio 5-HIAA/5-HT (serotonin pathway): threefold increase | level of phospho-AMPK (AMPK; 1-hour post ip injection): increased the level of phospho-AMPK | level of phospho-AMPK (AMPK; 30 min post ip injection): increased the level of phospho-AMPK | level of phospho-AMPK (AMPK; 3 hours post ip injection): no longer observable | effect of AdipoRon on current and membrane conductance ([2]; CsCl internal solution instead of KCl solution): blocked | membrane conductance ([2]; holding potential of -60 mV, KCl internal solution, 10 µM AdipoRon): decrease in membrane conductance | induced current ([2]; holding potential of -60 mV, KCl internal solution, n=9/9 presumed serotoninergic neurons, N=5 mice, 10 µM AdipoRon): small inward current | action potential discharge ([3]; 1/7 presumed serotoninergic neuron, current clamp): no effect | membrane potential ([3]; 6 out of 7 presumed serotoninergic neurons, current clamp): small depolarization | action potential discharge frequency ([3]; 6 out of 7 presumed serotoninergic neurons, current clamp, N= 4 mice): increase in action potential discharge frequency | membrane potential ([3]; presumed non-serotoninergic neurons, 2/4): hyperpolarization | membrane potential ([3]; presumed non-serotoninergic neurons, the other 2/4): no effect
